PubChem BioAssay AID2060615 (Molecular Pharmacology Branch, DTP, NCI, 2025)

Tested on: 496974-208-R-J2-PDC complex spheroids, growth % test/control
Assay: Anticancer human tumor 496974-208-R-J2-PDC patient-derived pancreatic carcinoma cell line growth inhibition [CLK]
Details: for IC50: curve of first compound; for viability, T/C: stronger effect = lower value
Method in brief: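 Multi-cell-type spheroids combined patient-derived tumor cells with HUVEC endothelial cells and human mesenchymal stem cells. Paired agents were dosed in half-log steps down from about clinical Cmax, or from 10 microM where Cmax was unknown.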
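Further: spheroids exposed to the drugs for 7 days before readout.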
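Wherever viability, T/C is given: 100% = DMSO vehicle control wells.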

Compound: C=CC(=O)Nc1cc(Nc2nccc(-c3cn(C)c4ccccc34)n2)c(OC)cc1N(C)CCN(C)C + CN1CCN(c2cc(C(=O)Nc3cc4cc(-c5cnn(C)c5)ccc4cn3)ccn2)CC1
- IC50 (second compound 0.0316 µM): > 300 nM
- IC50 (second compound 0.1 µM): > 300 nM
- IC50 (second compound 0.316 µM): < 0.949 nM
- IC50 (second compound 1 µM): < 0.949 nM
- IC50 (second compound 3.16 µM): < 0.949 nM
- IC50 (second compound 10 µM): < 0.949 nM
- viability, T/C (second compound 0.0316 µM, first compound 0.000949 µM): 104%
- viability, T/C (second compound 0.0316 µM, first compound 0.003 µM): 100%
- viability, T/C (second compound 0.0316 µM, first compound 0.00949 µM): 94.9%
- viability, T/C (second compound 0.0316 µM, first compound 0.03 µM): 86.5%
- viability, T/C (second compound 0.0316 µM, first compound 0.0949 µM): 85.7%
- viability, T/C (second compound 0.0316 µM, first compound 0.3 µM): 60.6%
- viability, T/C (second compound 0.1 µM, first compound 0.000949 µM): 77.1%
- viability, T/C (second compound 0.1 µM, first compound 0.003 µM): 86.2%
- viability, T/C (second compound 0.1 µM, first compound 0.00949 µM): 80.8%
- viability, T/C (second compound 0.1 µM, first compound 0.03 µM): 74.3%
- viability, T/C (second compound 0.1 µM, first compound 0.0949 µM): 70.8%
- viability, T/C (second compound 0.1 µM, first compound 0.3 µM): 50%
- viability, T/C (second compound 0.316 µM, first compound 0.000949 µM): 6.91%
- viability, T/C (second compound 0.316 µM, first compound 0.003 µM): 7.98%
- viability, T/C (second compound 0.316 µM, first compound 0.00949 µM): 5.85%
- viability, T/C (second compound 0.316 µM, first compound 0.03 µM): 4.61%
- viability, T/C (second compound 0.316 µM, first compound 0.0949 µM): 6.12%
- viability, T/C (second compound 0.316 µM, first compound 0.3 µM): 4.42%
- viability, T/C (second compound 1 µM, first compound 0.000949 µM): 0.32%
- viability, T/C (second compound 1 µM, first compound 0.003 µM): 0.55%
- viability, T/C (second compound 1 µM, first compound 0.00949 µM): 1.29%
- viability, T/C (second compound 1 µM, first compound 0.03 µM): 0.51%
- viability, T/C (second compound 1 µM, first compound 0.0949 µM): 2.8%
- viability, T/C (second compound 1 µM, first compound 0.3 µM): 0.65%
- viability, T/C (second compound 3.16 µM, first compound 0.000949 µM): 0.42%
- viability, T/C (second compound 3.16 µM, first compound 0.003 µM): 1.96%
- viability, T/C (second compound 3.16 µM, first compound 0.00949 µM): 1.14%
- viability, T/C (second compound 3.16 µM, first compound 0.03 µM): 0.42%
- viability, T/C (second compound 3.16 µM, first compound 0.0949 µM): 2.24%
- viability, T/C (second compound 3.16 µM, first compound 0.3 µM): 1.33%
- viability, T/C (second compound 10 µM, first compound 0.000949 µM): 0.31%
- viability, T/C (second compound 10 µM, first compound 0.003 µM): 0.31%
- viability, T/C (second compound 10 µM, first compound 0.00949 µM): 0.31%
- viability, T/C (second compound 10 µM, first compound 0.03 µM): 0.85%
- viability, T/C (second compound 10 µM, first compound 0.0949 µM): 2.25%
- viability, T/C (second compound 10 µM, first compound 0.3 µM): 2.99%

Compound: CC1(C)CCC(CN2CCN(c3ccc(C(=O)NS(=O)(=O)c4ccc(NCC5CCOCC5)c([N+](=O)[O-])c4)c(Oc4cnc5[nH]ccc5c4)c3)CC2)=C(c2ccc(Cl)cc2)C1 + CN1CCN(c2cc(C(=O)Nc3cc4cc(-c5cnn(C)c5)ccc4cn3)ccn2)CC1
- IC50 (second compound 0.0316 µM): > 10000 nM
- IC50 (second compound 0.1 µM): 8060 nM
- IC50 (second compound 0.316 µM): < 31.6 nM
- IC50 (second compound 1 µM): < 31.6 nM
- IC50 (second compound 3.16 µM): < 31.6 nM
- IC50 (second compound 10 µM): < 31.6 nM
- viability, T/C (second compound 0.0316 µM, first compound 0.0316 µM): 93.7%
- viability, T/C (second compound 0.0316 µM, first compound 0.1 µM): 95.9%
- viability, T/C (second compound 0.0316 µM, first compound 0.316 µM): 101%
- viability, T/C (second compound 0.0316 µM, first compound 1 µM): 104%
- viability, T/C (second compound 0.0316 µM, first compound 3.16 µM): 92.1%
- viability, T/C (second compound 0.0316 µM, first compound 10 µM): 50.8%
- viability, T/C (second compound 0.1 µM, first compound 0.0316 µM): 80.3%
- viability, T/C (second compound 0.1 µM, first compound 0.1 µM): 77.9%
- viability, T/C (second compound 0.1 µM, first compound 0.316 µM): 86.7%
- viability, T/C (second compound 0.1 µM, first compound 1 µM): 87.7%
- viability, T/C (second compound 0.1 µM, first compound 3.16 µM): 84.9%
- viability, T/C (second compound 0.1 µM, first compound 10 µM): 42.3%
- viability, T/C (second compound 0.316 µM, first compound 0.0316 µM): 5.92%
- viability, T/C (second compound 0.316 µM, first compound 0.1 µM): 5.59%
- viability, T/C (second compound 0.316 µM, first compound 0.316 µM): 5.97%
- viability, T/C (second compound 0.316 µM, first compound 1 µM): 6.42%
- viability, T/C (second compound 0.316 µM, first compound 3.16 µM): 3.9%
- viability, T/C (second compound 0.316 µM, first compound 10 µM): 5.66%
- viability, T/C (second compound 1 µM, first compound 0.0316 µM): 0.75%
- viability, T/C (second compound 1 µM, first compound 0.1 µM): 0.68%
- viability, T/C (second compound 1 µM, first compound 0.316 µM): 0.5%
- viability, T/C (second compound 1 µM, first compound 1 µM): 0.5%
- viability, T/C (second compound 1 µM, first compound 3.16 µM): 0.63%
- viability, T/C (second compound 1 µM, first compound 10 µM): 2.1%
- viability, T/C (second compound 3.16 µM, first compound 0.0316 µM): 0.5%
- viability, T/C (second compound 3.16 µM, first compound 0.1 µM): 0.74%
- viability, T/C (second compound 3.16 µM, first compound 0.316 µM): 0.43%
- viability, T/C (second compound 3.16 µM, first compound 1 µM): 0.7%
- viability, T/C (second compound 3.16 µM, first compound 3.16 µM): 0.52%
- viability, T/C (second compound 3.16 µM, first compound 10 µM): 3.57%
- viability, T/C (second compound 10 µM, first compound 0.0316 µM): 0.25%
- viability, T/C (second compound 10 µM, first compound 0.1 µM): 1.16%
- viability, T/C (second compound 10 µM, first compound 0.316 µM): 0.37%
- viability, T/C (second compound 10 µM, first compound 1 µM): 0.34%
- viability, T/C (second compound 10 µM, first compound 3.16 µM): 0.32%
- viability, T/C (second compound 10 µM, first compound 10 µM): 2.82%
